Values of other authors, collected in patent US10545073B2, “Method and instrument for extracting a component from a sample” (priority 2016, dated 2020).

| log P | Compound |
| --- | --- |
| 3.89 | Fc1ccc([C@@H]2CCNC[C@H]2COc2ccc3c(c2)OCO3)cc1 [Paroxetine] |
| 1.23 | CNC(=C[N+](=O)[O-])NCCSCc1ccc(CN(C)C)o1 [Ranitidine] |
| 0.01 | CC(C)(C)NCC(O)c1ccc(O)c(CO)c1 (stereo not shown) [Salbutamol] |
| 4.81 | CN[C@H]1CC[C@@H](c2ccc(Cl)c(Cl)c2)c2ccccc21 [Sertraline] |
